The results in this text go back to patent US20260042764A1, “COMPOSITIONS AND METHODS FOR INHIBITION OF KRAS” (TheRas, Inc., priority 2022, published 2026).

Where only a bound is given, the exact number is not on record here.

For one experiment, the system named is HT1080 cells (NRAS). Put plainly: Cell-based pERK HTRF assay in HT1080 cells (Biological Example 5).
Conditions: not given
In short, it runs like this: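 Inhibition of ERK phosphorylation is measured after cells grown in 10% FBS medium receive test compound for two hours at 37° C across nine threefold-spaced concentrations. Lysates are incubated with HTRF antibody pair for 24 h at 4° C, and EC50 is derived from the 665/620 nm signal ratio.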
In general terms: TR-FRET usually uses a lanthanide donor and a delayed reading to cut background.
For orientation: IC50 means the concentration that inhibits the measured activity by half. With `CCN(c1nc(OC[C@@]23CCCN2C[C@H](F)C3)nc2c(F)c(-c3ccc(F)c4sc(N)c(C#N)c34)c(C(F)(F)F)cc12)[C@H]1CCN(C(=O)C(C)C)C1` (atropisomer, axis not shown) [Compound 468], the IC50 is over 1000 nM.

The same experiment, now with this note: Homo sapiens, HT-1080.
In the case of `CCN(c1nc(OC[C@@]23CCCN2C[C@H](F)C3)nc2c(F)c(-c3ccc(F)c4sc(N)c(C#N)c34)c(C(F)(F)F)cc12)[C@H]1CCN(C(=O)C(C)C)C1` (single isomer, unassigned) [Compound 469], the IC50 was over 1000 nM.
Still for that read-out and setting: as for `CCN(c1nc(OC[C@@]23CCCN2C[C@H](F)C3)nc2c(F)c(-c3ccc(F)c4sc(N)c(C#N)c34)c(C(F)(F)F)cc12)[C@@H]1CCN(C(=O)C2CC2)[C@@H]1C` (atropisomer, axis not shown) [Compound 524], the figure is over 1000 nM; as for `CCN(c1nc(OC[C@@]23CCCN2C[C@H](F)C3)nc2c(F)c(-c3ccc(F)c4sc(N)c(C#N)c34)c(C(F)(F)F)cc12)[C@H]1CCN(C(=O)OC)C1` (atropisomer, axis not shown) [Compound 541, methyl(3S)-3-[[7-(2-amino-3-cyano-7-fluoro-benzothiophen-4-yl)-8-fluoro-2-[[(2R,8S)-2-fluoro-1,2,3,5,6,7-hexahydropyrrolizin-8-yl]methoxy]-6-(trifluoromethyl)quinazolin-4-yl]-ethyl-amino]pyrrolidine-1-carboxylate], over 1000 nM; as for `CCC(=O)N1CC[C@@H](N(CC)c2nc(OC[C@@]34CCCN3C[C@H](F)C4)nc3c(F)c(-c4ccc(F)c5sc(N)c(C#N)c45)c(C(F)(F)F)cc23)[C@H]1C` (atropisomer, axis not shown) [Compound 523], over 1000 nM.
The same measure, in the same setting: as for `CCOC(=O)N1CC[C@H](N(CC)c2nc(OC[C@@]34CCCN3C[C@H](F)C4)nc3c(F)c(-c4ccc(F)c5sc(N)c(C#N)c45)c(C(F)(F)F)cc23)C1` [Compound 467], the figure is over 1000 nM; as for `N#Cc1c(N)sc2c(F)ccc(-c3c(C(F)(F)F)cc4c(N5CCn6nc(N7CCOCC7)cc6C5)nc(OC[C@@]56CCCN5C[C@H](F)C6)nc4c3F)c12` [Compound 485], over 1000 nM.
Still for that read-out and setting: with `CCN(c1nc(OC[C@@]23CCCN2C[C@H](F)C3)nc2c(F)c(-c3ccc(F)c4sc(N)c(C#N)c34)c(C(F)(F)F)cc12)[C@H]1CCS(=O)(=O)C1` (atropisomer, axis not shown) [Compound 492] the figure was over 1000 nM.
In turn, `Cc1cc2n(n1)CCN(c1nc(OCC34CCCN3CC(F)C4)nc3c(F)c(-c4ccc(F)c5sc(N)c(C#N)c45)c(C(F)(F)F)cc13)C2` (stereo not shown) [Compound 484] gave an IC50 of over 1000 nM.
`CCN(c1nc(OC[C@@]23CCCN2C[C@H](F)C3)nc2c(F)c(-c3ccc(F)c4sc(N)c(C#N)c34)c(C(F)(F)F)cc12)[C@H]1C[C@H](C)N(C(=O)C2CC2)C1` [Compound 470] yielded an IC50 of over 1000 nM.
Still for that read-out and setting: as for `CCN(c1nc(OC[C@@]23CCCN2C[C@H](F)C3)nc2c(F)c(-c3ccc(F)c4sc(N)c(C#N)c34)c(C(F)(F)F)cc12)[C@H]1CCN(C(=O)N(C)C)C1` (atropisomer, axis not shown) [Compound 540, (3S)-3-[[7-(2-amino-3-cyano-7-fluoro-benzothiophen-4-yl)-8-fluoro-2-[[(2R,8S)-2-fluoro-1,2,3,5,6,7-hexahydropyrrolizin-8-yl]methoxy]-6-(trifluoromethyl)quinazolin-4-yl]-ethyl-amino]-N,N-dimethyl-pyrrolidine-1-carboxamide], the figure is over 1000 nM.

Another experiment has as its system HCT116 cells (KRAS G13D). Nature of the experiment: 3D Cell viability assay in HCT116 cells (Biological Example 6). It is filed as cell-based. Conditions: Homo sapiens, HCT-116; HCT116 (KRAS G13D) spheroids, 72 hours. In short, it runs like this:
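Spheroids formed from 1000 cells/well over 48 h in ultra-low-attachment plates, 10% FBS medium, 37 °C, 5% CO2. Then treated 72 h with a 9-point, three-fold compound series at 0.25% DMSO. Viability by CellTiter-Glo 3D luminescence, EC50 from four-parameter variable-slope fit.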
`CCN(c1nc(OC[C@@]23CCCN2C[C@H](F)C3)nc2c(F)c(-c3ccc(F)c4sc(N)c(C#N)c34)c(C(F)(F)F)cc12)[C@H]1CCN(C(=O)OC)C1` (atropisomer, axis not shown) [Compound 541, methyl(3S)-3-[[7-(2-amino-3-cyano-7-fluoro-benzothiophen-4-yl)-8-fluoro-2-[[(2R,8S)-2-fluoro-1,2,3,5,6,7-hexahydropyrrolizin-8-yl]methoxy]-6-(trifluoromethyl)quinazolin-4-yl]-ethyl-amino]pyrrolidine-1-carboxylate] had a concentration for half-maximal inhibition (IC50) of 100 to 1000 nM.
Same read-out and setting: as for `CCN(c1nc(OC[C@@]23CCCN2C[C@H](F)C3)nc2c(F)c(-c3ccc(F)c4sc(N)c(C#N)c34)c(C(F)(F)F)cc12)[C@H]1CCS(=O)(=O)C1` (atropisomer, axis not shown) [Compound 492], the figure is 100 to 1000 nM.
